Assay results published in ChEMBL document CHEMBL1134925, “Exiguamide, a new spirocyclic sesquiterpene from the marine sponge Geodia exigua that inhibits cell fate specification during sea urchin embryogenesis” (Bioorg Med Chem Lett, 2002).
Calls of active or inactive are those of the source. No cut-off for these calls is given here.

Tested on: Hemicentrotus pulcherrimus
Test: Ability of the embryo (sea urchin, Hemicentrotus pulcherrimus) to form spicule deficient plutei when treated with the compound at a concentration of 0.4-12 uM; not active
Format: functional, organism-based

With CC1=C[C@@]2(CC1)[C@H](NC=O)[C@H](C(C)C)CC[C@@H]2C the Activity was “inactive”.
